Values quoted from earlier work, collected in patent publication US20110306626A1, “IMIDAZOLINONE DERIVATIVES AS CGRP RECEPTOR ANTAGONISTS” (priority 2008, published 2011).
Ends that are not written are not given here.

Experiments:
[1] = tested on: acute attacks of migraine; details: clinical trials (Olesen et al. 2004)
[2] = tested on: headache induced by CGRP infusion; details: control group (Petersen et al. 2005)
[3] = tested on: facial blood flow; details: marmoset, electrical stimulation of the trigeminal ganglion (Doods et al. 2000)
[4] = tested on: middle meningeal artery; details: rats, electrical stimulation of the dura mater, prior administration (Williamson et al. 1997)
[5] = tested on: facial blood flow; details: rat, trigeminal ganglion stimulation (Escott et al. 1995)

| Compound | treatment of acute attacks of migraine [1] | prevention of headache induced by CGRP infusion [2] | increase in facial blood flow [3] | increase of the diameter of the middle meningeal artery [4] | increase of facial blood flow [5] |
| --- | --- | --- | --- | --- | --- |
| NCCCC[C@H](NC(=O)[C@@H](Cc1cc(Br)c(O)c(Br)c1)NC(=O)N1CCC(N2Cc3ccccc3NC2=O)CC1)C(=O)N1CCN(c2ccncc2)CC1 [BIBN4096BS] | effective in treating acute attacks of migraine | able to prevent headache induced by CGRP infusion | could be blocked |  |  |
| CGRP(8-37): a peptide CGRP antagonist; fragment of CGRP that lacks seven N-terminal amino acid residues (VTHRLAGLLSRSGGVVKNNFVPTNVGSKAF; ends and bridges not checked; UniProt P06881 90-119, looked up, fragment) |  |  |  | blocked | inhibited |
